Test results from US20110313677A1, “METHOD FOR DETERMINING THE LIVER PERFORMANCE OF A LIVING ORGANISM BY THE MEANS OF QUANTITATIVE MEASURING THE METABOLIZATION OF SUBSTRATES” (HUMEDICS GMBH, priority 2009, published 2011).

Columns and labels:
[1] = concentration changes of 13C methacetin and its dealkylation product Paracetamol in the blood followed by HPLC; conditions: FIG. 8, blood
From the text: (§1) Beside or additionally to the determination of the amount of a ^13C labelled metabolization product as for instance ^13CO2 in the exhalation air for estimating the liver performance it is also conceivable to follow the concentration decrease of the dealkylated product in the blood and to deduce from the corresponding slope kinetics a time constant tau.
(§2) The concentration changes of the administered ^13C labelled substrate, for instance ^13C methacetin and of the dealkylation product formed in the liver, for instance Paracetamol, are followed by the means of a suitable analytical method, for instance HPLC. […] The initial concentration changes can also be described here with a differential equation of first order.

CYP1A2 = target: T1, CYP1A2 (Homo sapiens, UniProt P05177); experiment: breath test: 13CO2 increase in exhalation air after intravenous 13C methacetin (DOB slope kinetics, LiMAx); type: in vivo
T1 construct: follow directly and immediately the metabolization of the administered substrate by the enzymes present in the liver; from tissue; host or cells: liver of the living human subject (in vivo)
T1 sequence (P05177 1-516): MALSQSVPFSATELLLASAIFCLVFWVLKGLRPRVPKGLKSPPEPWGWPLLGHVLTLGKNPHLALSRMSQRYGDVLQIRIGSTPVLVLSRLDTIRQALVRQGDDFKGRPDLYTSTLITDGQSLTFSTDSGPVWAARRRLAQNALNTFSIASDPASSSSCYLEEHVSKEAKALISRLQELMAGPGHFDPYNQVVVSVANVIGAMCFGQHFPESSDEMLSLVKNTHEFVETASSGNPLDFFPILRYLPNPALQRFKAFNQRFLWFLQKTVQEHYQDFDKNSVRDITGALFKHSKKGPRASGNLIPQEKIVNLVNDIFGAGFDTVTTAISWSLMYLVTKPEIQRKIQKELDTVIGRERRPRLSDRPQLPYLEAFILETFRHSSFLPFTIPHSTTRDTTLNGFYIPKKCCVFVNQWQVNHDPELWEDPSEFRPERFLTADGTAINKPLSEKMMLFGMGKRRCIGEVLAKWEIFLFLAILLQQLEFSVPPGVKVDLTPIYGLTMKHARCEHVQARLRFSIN
From the text: Thereby, the method according to an aspect of the invention comprises the steps of administering at least one ^13C labelled substrate, which is converted by the liver by releasing at least one ^13C labelled metabolization product, in particular ^13CO2 and the step of determining the amount of the at least one formed ^13C labelled metabolization product, in particular of the ^13CO2 amount, in the exhalation air over a definite time interval by the means of at least one measuring device with at least one evaluation unit. In an embodiment, the amount of the formed ^13C labelled metabolization product, in particular of ^13CO2 in the exhalation air, is proportional to the amount of the at least one administered substrate. The method according to an aspect of the invention is characterized in that it is now possible based on the determined measure points to describe the measured initial increase of the amount of the at least one ^13C labelled metabolization product, in particular of the ^13CO2 amount, in the exhalation air by the means of a differential equation of first order. Based on the solution of this differential equation of first order subsequently a maximum value Amax (also designated as DOBmax, whereby DOB stands for “delta over baseline”) and a time constant tau of the increase of the amount of the ^13C labelled metabolization product, in particular of the ^13CO2 amount, are determined.
wherein (t) stands for the metabolization dynamic of the at least one substrate, t for the measuring time, t0 for the start of the metabolization, tau for the time constant of the conversion and Amax for the maximum amplitude of the fitted function or the maximum concentration of the metabolization product and A0 for the initial concentration of the metabolization product. Therefore, a determination of Amax and the time constant tau is possible based on the above equation.
wherein RPDB corresponds to the value 0,011237 (Pee-Dee-Belemnite-standard of the ^13CO2/^12CO2-ratio), P to the CO2 production rate, M to the molar mass of the administered substance and BW to the body weight of the person.
In an embodiment of the present method the determination of the liver performance of a human occurs according to a scheme as shown in FIG. 2. During this measurement course the metabolization is started by the intravenous administering of the substrate to be metabolized, in particular ^13C methacetin 1 in combination with an isotonic sodium chloride solution 1a.
Beside an enzymatic activation of the substrate in particular by the P450 oxygenases also a release or activation of the substrate by the means of radiation or other fast processes is conceivable. The released metabolization product for instance ^13CO2 is transported via the blood into the lung and is there exhaled. The exhalation air is continuously transported into the measuring device 2, e.g., via a breathing mask and a connecting tube and is analyzed by the means of a computer 3 (Stockmann et al., Annals of Surgery, 2009, 250: col. 119-125). A measuring device suitable for the present method is for instance described in WO 2007/107366 A1.
Due to the specific measuring device being applied it is possible to follow the metabolization of the substrate in each breath in real time. This is emphasized in FIG. 3. […] Thereby 1 DOB indicates a change of the ^13CO2 to ^12CO2 ratio at about thousandth part over the natural ratio. As described before, Amax or DOBmax as well as the time constant tau are deducible from said slope. After the ^13CO2 increase has reached a maximum a decrease of the ^13CO2 concentration occurs what can be attributed to further dynamic processes in the body which contribute to the degradation of the measured signal.
described metabolization dynamics it is possible to follow directly and immediately the metabolization of the administered substrate by the enzymes present in the liver. If methacetin is administered as substrate, it is demethylated by the enzyme CYP1A2. […]

[2] = in vivo
From the text: as §1, §2

| SMILES | time constant τ1 for the initial fast concentration increase ([1]; Paracetamol formed from 13C methacetin) [min] | time constant τ2 for the subsequent decelerated concentration increase ([1]; further distribution in the blood) [min] | measured maximum value A of the 13CO2 increase in the breathing air (CYP1A2; FIG. 7, curve A, determined data points) | time constant tau for the conversion (CYP1A2; FIG. 7, curve B, fit of the initial 13CO2 increase) [min] | amplitude Amax of the fitted function (CYP1A2; FIG. 7, curve B, fit with solution of a differential equation of first order) | maximum conversion (CYP1A2; after the operation, residual liver volume 625 ml) [µg/h/kg] | maximum conversion LiMAx (CYP1A2; before the liver operation, total liver volume 1450 ml) [µg/h/kg] | maximum conversion LiMAx (CYP1A2; cirrhosis of the liver (FIG. 4b)) [µg/h/kg] | maximum conversion LiMAx (CYP1A2; corresponding to the aspired residual liver volume of 698 ml (rule of three)) [µg/h/kg] | maximum conversion LiMAx (CYP1A2; heavy liver damages (FIG. 4c)) [µg/h/kg] | maximum conversion LiMAx (CYP1A2; liver failure (FIG. 4d)) [µg/h/kg] | maximum conversion LiMAx (CYP1A2; normal liver performance (FIG. 4a)) [µg/h/kg] | initial concentration in the blood [2] [µg/mL] |
| --- | --- | --- | --- | --- | --- | --- | --- | --- | --- | --- | --- | --- | --- |
| CC(=O)Nc1ccc(O)cc1 [Paracetamol] | 1.3 | 16 | – | – | – | – | – | – | – | – | – | – | – |
| CC(=O)Nc1ccc(O[13CH3])cc1 [^13C methacetin, ^13C-methacetin] | – | – | 22,01 DOB | 2.42 | 22,09 DOB | 169 | 307 | 307 | 165 | 144 | 55 | 504 | 20 |
